# Measurements published in ChEMBL document CHEMBL1201862, “PubChem BioAssay data set” (2004).
#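 Cultured in 96-well plates, cells were exposed to test compound for 48 hours across five concentrations. GI50 is the concentration that inhibits growth by half.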 Activity calls are given as the source filed them. No stated cut-off is given here; in the data, active = GI50 up to about 1.1 µM and inactive = higher.
# Key:
# Assay in all cases: NCI-60 cell line screen, 48 h
# [1] = test system: 786-0
# [2] = test system: A498
# [3] = test system: A549
# [4] = test system: ACHN
# [5] = test system: BT-549
# [6] = test system: CAKI-1
# [7] = test system: CCRF-CEM
# [8] = test system: COLO 205
# [9] = test system: DU-145
# [10] = test system: EKVX
# [11] = test system: HCC 2998
# [12] = test system: HCT-116
# [13] = test system: HCT-15
# [14] = test system: HL-60
# [15] = test system: HOP-62
# [16] = test system: HOP-92
# [17] = test system: HT-29
# [18] = test system: Hs-578T
# [19] = test system: IGROV-1
# [20] = test system: K562
# [21] = test system: KM12
# [22] = test system: LOX IMVI
# [23] = test system: M14
# [24] = test system: MCF7
# [25] = test system: MDA-MB-231
# [26] = test system: MDA-MB-435
# [27] = test system: MDA-N
# [28] = test system: MOLT-4
# [29] = test system: Malme-3M
# [30] = test system: NCI-H226
# [31] = test system: NCI-H23
# [32] = test system: NCI-H460
# [33] = test system: NCI-H522
# [34] = test system: NCI/ADR-RES
# [35] = test system: OVCAR-3
# [36] = test system: OVCAR-4
# [37] = test system: OVCAR-5
# [38] = test system: OVCAR-8
# [39] = test system: PC-3
# [40] = test system: RPMI-8226
# [41] = test system: RXF 393
# [42] = test system: SF-268
# [43] = test system: SF-295
# [44] = test system: SF-539
# [45] = test system: SK-MEL-28
# [46] = test system: SK-MEL-2
# [47] = test system: SK-MEL-5
# [48] = test system: SK-OV-3
# [49] = test system: SN12C
# [50] = test system: SNB-19
# [51] = test system: SNB-75
# [52] = test system: SR
# [53] = test system: SW-620
# [54] = test system: T47D
# [55] = test system: TK-10
# [56] = test system: U-251
# [57] = test system: UACC-257
# [58] = test system: UACC-62
# [59] = test system: UO-31
smiles,measurement,setting,value
O=C1C=C2C(=NC34CCCCC3C(c3ccccc3)C3=C(c5ccccc5CC3)N24)c2ccccc21 (stereo unspecified),GI50,[1],> 10 µM (inactive)
same,GI50,[2],> 10 µM (inactive)
same,GI50,[3],> 10 µM (inactive)
same,GI50,[4],> 10 µM (inactive)
same,GI50,[5],> 10 µM (inactive)
same,GI50,[6],> 10 µM (inactive)
same,GI50,[7],> 10 µM (inactive)
same,GI50,[8],> 10 µM (inactive)
same,GI50,[9],> 10 µM (inactive)
same,GI50,[10],> 10 µM (inactive)
same,GI50,[11],> 10 µM (inactive)
same,GI50,[12],> 10 µM (inactive)
same,GI50,[13],> 10000 nM
same,GI50,[14],> 10 µM (inactive)
same,GI50,[15],> 10 µM (inactive)
same,GI50,[16],> 10 µM (inactive)
same,GI50,[17],> 10 µM (inactive)
same,GI50,[18],> 10 µM (inactive)
same,GI50,[19],> 10 µM (inactive)
same,GI50,[20],> 10 µM (inactive)
same,GI50,[21],> 10 µM (inactive)
same,GI50,[22],> 10 µM (inactive)
same,GI50,[23],> 10 µM (inactive)
same,GI50,[24],> 10 µM (inactive)
same,GI50,[25],> 10 µM (inactive)
same,GI50,[26],> 10 µM (inactive)
same,GI50,[27],> 10 µM (inactive)
same,GI50,[28],> 10 µM (inactive)
same,GI50,[29],> 10 µM (inactive)
same,GI50,[30],> 10 µM (inactive)
same,GI50,[31],> 10 µM (inactive)
same,GI50,[32],> 10 µM (inactive)
same,GI50,[33],> 10 µM (inactive)
same,GI50,[34],> 10 µM (inactive)
same,GI50,[35],> 10 µM (inactive)
same,GI50,[36],> 10 µM (inactive)
same,GI50,[37],> 10 µM (inactive)
same,GI50,[38],> 10 µM (inactive)
same,GI50,[39],> 10 µM (inactive)
same,GI50,[40],> 10 µM (inactive)
same,GI50,[41],> 10 µM (inactive)
same,GI50,[42],> 10 µM (inactive)
same,GI50,[43],> 10 µM (inactive)
same,GI50,[44],> 10 µM (inactive)
same,GI50,[45],> 10 µM (inactive)
same,GI50,[46],> 10 µM (inactive)
same,GI50,[47],> 10 µM (inactive)
same,GI50,[48],> 10 µM (inactive)
same,GI50,[49],> 10 µM (inactive)
same,GI50,[50],> 10 µM (inactive)
same,GI50,[51],8.95 µM (inactive)
same,GI50,[52],8.22 µM (inactive)
same,GI50,[53],> 10 µM (inactive)
same,GI50,[54],> 10 µM (inactive)
same,GI50,[55],> 10 µM (inactive)
same,GI50,[56],> 10 µM (inactive)
same,GI50,[57],> 10 µM (inactive)
same,GI50,[58],> 10 µM (inactive)
O=c1cc(-c2ccccc2)[nH]c2ccc(N3CCOCC3)cc12,GI50,[1],0.0363 µM (active)
same,GI50,[2],0.0413 µM (active)
same,GI50,[3],0.0773 µM (active)
same,GI50,[4],0.0611 µM (active)
same,GI50,[5],23.8 µM (inactive)
same,GI50,[6],0.0291 µM (active)
same,GI50,[7],0.0144 µM (active)
same,GI50,[8],0.0182 µM (active)
same,GI50,[9],0.038 µM (active)
same,GI50,[10],53 µM (inactive)
same,GI50,[11],0.0468 µM (active)
same,GI50,[12],< 0.0167 µM (active)
same,GI50,[13],24.1 nM
same,GI50,[14],0.0151 µM (active)
same,GI50,[15],0.0241 µM (active)
same,GI50,[16],0.0622 µM (active)
same,GI50,[17],0.0211 µM (active)
same,GI50,[18],0.0239 µM (active)
same,GI50,[19],0.0518 µM (active)
same,GI50,[20],< 0.0127 µM (active)
same,GI50,[21],< 0.0171 µM (active)
same,GI50,[22],0.0335 µM (active)
same,GI50,[23],0.0173 µM (active)
same,GI50,[24],0.0327 µM (active)
same,GI50,[25],0.0618 µM (active)
same,GI50,[26],< 0.01 µM (active)
same,GI50,[27],< 0.01 µM (active)
same,GI50,[28],0.104 µM (active)
same,GI50,[29],14 µM (inactive)
same,GI50,[30],0.0319 µM (active)
same,GI50,[31],0.0414 µM (active)
same,GI50,[32],0.0465 µM (active)
same,GI50,[33],0.0173 µM (active)
same,GI50,[34],0.0435 µM (active)
same,GI50,[35],0.0148 µM (active)
same,GI50,[36],20.1 µM (inactive)
same,GI50,[38],0.042 µM (active)
same,GI50,[39],0.0346 µM (active)
same,GI50,[40],0.065 µM (active)
same,GI50,[41],0.04 µM (active)
same,GI50,[42],0.0407 µM (active)
same,GI50,[43],0.0236 µM (active)
same,GI50,[44],< 0.0149 µM (active)
same,GI50,[45],0.0128 µM (active)
same,GI50,[46],22.5 µM (inactive)
same,GI50,[47],< 0.0233 µM (active)
same,GI50,[48],0.0327 µM (active)
same,GI50,[49],0.0467 µM (active)
same,GI50,[50],0.0434 µM (active)
same,GI50,[51],0.0143 µM (active)
same,GI50,[52],< 0.017 µM (active)
same,GI50,[53],0.0371 µM (active)
same,GI50,[54],> 100 µM (inactive)
same,GI50,[55],55 µM (inactive)
same,GI50,[56],0.0185 µM (active)
same,GI50,[57],> 100 µM (inactive)
same,GI50,[58],< 0.0268 µM (active)
same,GI50,[59],13.2 µM (inactive)
